Data published in US8252832B2, “Kinesin inhibitors as cancer therapeutics” (Novartis AG, priority 2007, dated 2012).
Marks after values point to notes of the source that are not given here.

Assays:
[1] = tested on: Colo-205; test: LDH release assay; type: cell-based; conditions: Homo sapiens
Text: Identification of tumor types that are the most sensitive to the KSP inhibitors of the present invention can be accomplished using an unbiased approach that uses several cell-based assays. The assays chosen were as follows: • CellTiter-Glo®. This is an assay designed to measure ATP concentration in a cell culture, and can be correlated to cell number. Briefly CellTiter-Glo® (Promega Corporation) is a homogeneous method using the single CellTiter-Glo® reagent to detect ATP wherein ATP in the assay drives the activity of a thermostable luciferase to create a luminescent signal which can then be measured and correlated with the number of viable cells. Briefly, for adherent cells, 1,000 to 5,000 cells/well were plated in 96-well plates (100 μl/well) and let to adhere for 24 hours before being treated with drug. For non-adherent cells, 1,000 to 10,000 cells/well were plated in 96-well plates (100 μl/well) and immediately treated with drug. Drug dilutions were prepared in DMSO at 1000 times the final concentration. These dilutions were then diluted 1/100 in growth media before being added to the cells (11 μl/well) to achieve the desired final concentration. After 48 h in a 37° C. tissue culture incubator, the plates were processed for the CellTiter-Glo®assay according to the manufacturer's instructions. Protocol for a 72 hour cell proliferation assay: The 72 hour assay was performed the same way as the 48 hour assay except for the following modifications: For adherent cells, 500 to 5,000 cells/well were plated in 96-well plates (90 μl/well cell growth media) and left to adhere for 24 hours before being treated with drug. For non-adherent cells, 1,000 to 10,000 cells/well were plated in 96-well plates (90 μl/well cell growth media) and immediately treated with drug. Data values presented represent the concentration of test compound required for a 50% reduction in growth. • LDH release. […] The enzymatic reaction is coupled to a chemical reaction that uses a tetrazolium salt to form a formazan that is red and can be detected by its absorbance at 490 nm. […]

[2] = tested on: KMS-11-luc disseminated disease; test: KMS-11-luc disseminated disease model, tumor response and survival; type: in vivo, mouse
Protocol: Experiments were performed using immunodeficient SCID-Beige female mice approximately 7-8 weeks old (Charles River Laboratories, Wilmington, Mass.). […] Routine animal care and assurance of welfare were as described above.
Human KMS-11-luc multiple myeloma cells were obtained from the laboratory of Suzanne Trudel at the University of Toronto (Ontario, Canada) and tested to be free of Mycoplasma sp. and murine viruses in the IMPACT1 PCR assay panel (RADIL, University of Missouri, Columbia, Mo.). Prior to our receiving this cell line, it had been stably engineered to express luciferase by retroviral transfection of the pGC-gfp/luc vector. KMS-11-luc cells were grown in Iscove's medium supplemented with 2 mmol/L L-glutamine (Mediatech, Inc., Hemdon, Va.) and 10% fetal bovine serum (JRH Biosciences, catalog #12003-1000M). These cells were grown as suspension cultures, maintained at 37° C. in a humidified atmosphere containing 5% carbon dioxide. Cells were cultured for fewer than 10 passages prior to use. Cells were harvested at approximately 2 million cells/mL, and centrifuged at ˜800×g for 5 minutes at 4° C. and then resuspended in a 1:1 mixture of cold Hank's balanced salt solution (HBSS) and Matrigel™ (Mediatech Inc., catalog #21-021-CV; BD Biosciences, catalog #354234, respectively) at a concentration of 50 million cells/mL for implantation subcutaneously (injection volume of 0.2 mL). Alternatively, for the disseminated disease model, cells were prepared only in cold HBSS at a concentration of 100 million cells/mL for intravenous (i.v.) implantation via the tail vein (injection volume of 0.1 mL).
Compound IIa and SB-715992 (free base) were formulated in 20% Captisol for a dose volume of 8 mL/kg. Doses were adjusted to each animal's body weight.
For the efficacy evaluation in the disseminated disease model, 10 million cells in HBSS were injected i.v. via the tail vein in a total volume of […]. Forty mice were randomized and enrolled on study 10 days post-implant, with a mean photon count in the leg bones (right+left) of approximately 9×10^5 photons/second, as determined by bioluminescence imaging. Approximately 10 minutes prior to imaging, mice were injected i.p. with 150 mg/kg luciferin (Xenogen Corporation, Alameda, Calif.), followed by anesthetization with isoflurane. Photon emission was measured using a charge coupled device camera in the IVIS imaging system (Xenogen Corporation). Briefly, a gray-scale image of the mice was captured, followed by an overlay of a bioluminescence map representing the spatial distribution of photons detected from cleaved luciferin in the cancer cells expressing luciferase. Signal intensity was quantified using a customized version of the IGOR Pro version 4.09A Software (WaveMetrics, Inc., Lake Oswego, Oreg.) called Living Image version 2.50.2 (Xenogen). The sum of all detected photon counts from the right+left legs were determined. Bioluminescence of cancer cells in the animals was measured by imaging on designated days until the first mice developed hind limb paralysis due to disease burden, the main end point for when to humanely euthanize mice. The day of euthanasia for each mouse was recorded, and the remaining percentage of mice surviving was plotted over time (Kaplan-Meier survival analysis). P values were calculated using the log-rank test (GraphPad Prism 4.0 software) to assess differences between treated and control groups (p<0.05 was considered significant). […] Data analysis was as described above.

Compound: CC(C)(C)[C@H](c1nc(-c2cc(F)ccc2F)cn1Cc1ccccc1)N(CC[C@H](N)CF)C(=O)CO [Compound IIa]
- EC50 ([1]; Colo-205, 48 h): 0.11 nM
- EC50 ([1]; Colo-205, 72 h): 0.16 nM
- T/C, Day 13 (%) ([2]; 0.25 mg/kg, q4d × 3, i.v): 15%
- Δ Tumor Bioluminescence, Day 13 ([2]; 0.25 mg/kg, q4d × 3, i.v): 2.2 × 10^7 ± 1.1 × 10^6 photons/sec
- Mean Day of Survival ([2]; 0.25 mg/kg, q4d × 3, i.v., listed as COMPOUND IIa): 29** day
- Mean Day of Survival ([2]; 0.25 mg/kg, q4d × 3, i.v., listed as compound IIa): 29 days
- T/C, Day 13 (%) ([2]; 0.5 mg/kg, q4d × 3, i.v): 0.7* %
- Δ Tumor Bioluminescence, Day 13 ([2]; 0.5 mg/kg, q4d × 3, i.v): 1.1 × 10^6 ± 5.8 × 10^5 photons/sec
- Mean Day of Survival ([2]; 0.5 mg/kg, q4d × 3, i.v., listed as COMPOUND IIa): 35** day
- Mean Day of Survival ([2]; 0.5 mg/kg, q4d × 3, i.v., listed as compound IIa): 35 days
- Regression, Day 13 (%) ([2]; 1 mg/kg, q4d × 3, i.v.): 47%
- Δ Tumor Bioluminescence, Day 13 ([2]; 1 mg/kg, q4d × 3, i.v.): −4.3 × 10^5 ± 1.7 × 10^5 photons/sec
- Mean Day of Survival ([2]; 1 mg/kg, q4d × 3, i.v., listed as COMPOUND IIa): 52** day
- Mean Day of Survival ([2]; 1 mg/kg, q4d × 3, i.v., listed as compound IIa): 52 days
